Type in all cases: biochemical
Test [1] deals with phosphorylated p-38-alpha kinase (Homo sapiens, UniProt Q16539). Kind of test: P-38 alpha kinase assay P1. Conditions: Method P1; 2 h pre-incubation before ATP.
The target in the next test is KDR kinase (Homo sapiens, UniProt P35968, DEL940-989/E990V). The test can be described thus: KDR kinase assay K1. Here is the method: (§1) IC50 values were calculated from a series of percent inhibition values determined at a range of inhibitor concentrations using software routines as implemented in the GraphPad Prism software package.
KDR kinase, sequence (P35968 with tags, fused parts or gaps DEL940-989/E990V): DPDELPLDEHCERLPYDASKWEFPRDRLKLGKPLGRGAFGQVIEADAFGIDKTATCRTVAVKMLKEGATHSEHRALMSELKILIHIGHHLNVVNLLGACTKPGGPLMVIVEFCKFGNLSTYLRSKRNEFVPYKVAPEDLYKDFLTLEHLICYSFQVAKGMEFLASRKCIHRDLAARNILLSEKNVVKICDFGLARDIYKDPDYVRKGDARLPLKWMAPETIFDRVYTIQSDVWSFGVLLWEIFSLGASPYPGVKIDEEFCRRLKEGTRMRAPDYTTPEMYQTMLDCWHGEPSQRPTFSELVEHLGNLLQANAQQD
Another test deals with B-Raf(V599E) kinase (Homo sapiens, UniProt P15056, V600E). Kind of test: B-Raf(V599E) kinase assay B1. Conditions: for inhibition at 1 µM: read-out: Results, % @ concentration μM; for IC50: Method B1, construct 1. Here is the method: The test compounds were incubated with the reaction mixture at 30° C. for 2 h. […] The reaction rate was calculated using the 1.5 h to 2.5 h time frame. […] IC50 values were calculated from a series of percent inhibition values determined at a range of inhibitor concentrations using software routines as implemented in the GraphPad Prism software package.
B-Raf(V599E) kinase, sequence (P15056 with tags, fused parts or gaps V600E): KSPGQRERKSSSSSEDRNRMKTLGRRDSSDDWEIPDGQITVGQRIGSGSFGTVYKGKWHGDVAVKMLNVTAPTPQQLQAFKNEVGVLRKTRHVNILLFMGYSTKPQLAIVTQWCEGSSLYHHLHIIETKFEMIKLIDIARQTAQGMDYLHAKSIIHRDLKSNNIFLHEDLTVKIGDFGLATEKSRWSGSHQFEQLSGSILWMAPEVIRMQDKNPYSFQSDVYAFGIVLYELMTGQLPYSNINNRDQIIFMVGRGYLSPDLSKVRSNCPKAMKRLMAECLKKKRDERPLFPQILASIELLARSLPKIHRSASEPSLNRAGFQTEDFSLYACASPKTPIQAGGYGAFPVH

Another test deals with T1, Abl kinase (Homo sapiens, UniProt P00519).
T1 sequence (P00519 229-512): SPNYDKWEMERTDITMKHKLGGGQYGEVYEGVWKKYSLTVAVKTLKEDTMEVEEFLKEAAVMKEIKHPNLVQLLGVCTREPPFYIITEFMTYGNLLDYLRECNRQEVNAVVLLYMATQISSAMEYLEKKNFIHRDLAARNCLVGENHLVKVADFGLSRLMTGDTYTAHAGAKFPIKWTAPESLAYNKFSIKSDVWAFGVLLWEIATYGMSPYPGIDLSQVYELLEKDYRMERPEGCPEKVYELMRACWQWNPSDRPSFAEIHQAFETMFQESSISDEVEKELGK
The test can be described thus: Abl kinase assay A1. The protocol:
as §1

Test [2] has as its target T2, phospho p-38 alpha kinase (Homo sapiens, UniProt Q16539).
T2 construct: purchased Panvera
Kind of test: P-38 alpha kinase assay (spectrophotometric, pyruvate kinase/lactate dehydrogenase coupled). Conditions: Table 5; for IC50: assay not named, read-out: uM.

Where [3] appears, read: read-out: Results, % @ concentration μM, Method K1, @ 10 μM.
Where [4] appears, read: read-out: Results, % @ concentration μM, Method A1, @ 10 μM.
[5] abbreviates: read-out: Results, % @ concentration μM.
[6] abbreviates: Method A1, read-out: Results, μM (IC50).

Structures are written as SMILES. Where two headings read alike, the source gives them in different places.

The values that follow come from patent US20090312349A1, “ANTI-INFLAMMATORY MEDICAMENTS” (priority 2004, published 2009).

phosphorylated p-38-alpha kinase, sequence (Q16539 1-360 isoform Q16539-2): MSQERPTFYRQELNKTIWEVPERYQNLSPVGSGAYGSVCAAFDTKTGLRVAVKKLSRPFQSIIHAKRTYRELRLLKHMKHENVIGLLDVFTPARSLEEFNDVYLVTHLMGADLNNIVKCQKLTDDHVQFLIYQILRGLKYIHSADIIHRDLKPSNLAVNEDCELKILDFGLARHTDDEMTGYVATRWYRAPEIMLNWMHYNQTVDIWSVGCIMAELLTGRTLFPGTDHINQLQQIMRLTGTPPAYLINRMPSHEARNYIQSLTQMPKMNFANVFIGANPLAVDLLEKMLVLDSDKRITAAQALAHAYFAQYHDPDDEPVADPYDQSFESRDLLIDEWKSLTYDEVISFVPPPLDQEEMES
T2 sequence (Q16539 whole entry): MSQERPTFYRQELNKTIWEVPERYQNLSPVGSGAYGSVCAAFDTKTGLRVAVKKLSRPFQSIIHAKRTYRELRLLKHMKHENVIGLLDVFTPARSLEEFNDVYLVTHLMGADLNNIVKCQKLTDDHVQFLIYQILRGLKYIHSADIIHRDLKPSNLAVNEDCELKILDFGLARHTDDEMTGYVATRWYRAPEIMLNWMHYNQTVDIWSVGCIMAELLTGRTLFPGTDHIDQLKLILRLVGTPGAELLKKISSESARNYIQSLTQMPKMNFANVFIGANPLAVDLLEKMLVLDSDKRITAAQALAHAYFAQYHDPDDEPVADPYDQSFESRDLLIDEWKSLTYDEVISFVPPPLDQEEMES

For `O=C(O)Cc1cccc(-n2nc(-c3ccccc3F)cc2NC(=O)Nc2cccc(Cl)c2Cl)c1` [Example 433, 2-(3-(5-(3-(2,3-dichlorophenyl)ureido)-3-(2-fluorophenyl)-1H-pyrazol-1-yl)phenyl)acetic acid], in test [1], the IC50 came out at 0.007 µM. Also, the inhibition at 10 µM was 63% at KDR kinase (setting [3]) and 39% on Abl kinase (setting [4]). In addition, at B-Raf(V599E) kinase, the inhibition at 1 µM is 37%.

Take `CCOC(=O)Cc1ccc(-n2nc(C3CCCC3)cc2NC(=O)Nc2cccc(Cl)c2Cl)cc1` [Example 437, ethyl 2-(4-(3-cyclopentyl-5-(3-(2,3-dichlorophenyl)ureido)-1H-pyrazol-1-yl)phenyl)acetate]: the inhibition at 10 µM at KDR kinase (setting [3]) came out at 32%; on Abl kinase (setting [4]), 21%. In addition, at B-Raf(V599E) kinase, the IC50 stood at 0.16 µM.

`O=C(O)Cc1ccc(-n2nc(C3CCCC3)cc2NC(=O)Nc2cccc(Cl)c2Cl)cc1` [Example 441, 2-(4-(3-cyclopentyl-5-(3-(2,3-dichlorophenyl)ureido)-1H-pyrazol-1-yl)phenyl)acetic acid]: the results for the IC50 (in test [1]; at B-Raf(V599E) kinase) were 0.005 µM and 0.037 µM, respectively. Moreover, the inhibition at 10 µM at KDR kinase (setting [3]) stood at 62%; at Abl kinase (setting [4]) it was 44%.

As to `COC(=O)Cc1ccc(-n2nc(-c3ccsc3)cc2NC(=O)Nc2cccc(Cl)c2Cl)cc1` [Example 445, methyl 2-(4-(5-(3-(2,3-dichlorophenyl)ureido)-3-(thiophen-3-yl)-1H-pyrazol-1-yl)phenyl)acetate], the inhibition at 1 µM on B-Raf(V599E) kinase was 39%. In addition, on Abl kinase (setting [4]), the inhibition at 10 µM came to 30%.

As to `NC(=O)Cc1cccc(-n2nc(-c3ccsc3)cc2NC(=O)Nc2cccc(Cl)c2Cl)c1` [Example 452, 1-(1-(3-(2-amino-2-oxoethyl)phenyl)-3-(thiophen-3-yl)-1H-pyrazol-5-yl)-3-(2,3-dichlorophenyl)urea], in test [1], the IC50 came to 0.006 µM. Further, the inhibition at 1 µM on B-Raf(V599E) kinase came to 45%. In addition, on Abl kinase (setting [4]), the inhibition at 10 µM amounted to 37%.

`CN(C)[C@@H]1CCN(C(=O)Cc2cccc(-n3nc(C(C)(C)C)cc3NC(=O)Nc3cccc(Cl)c3Cl)c2)C1` [Example 464, 1-(3-tert-butyl-1-(3-(2-((R)-3-(dimethylamino)pyrrolidin-1-yl)-2-oxoethyl)phenyl)-1H-pyrazol-5-yl)-3-(2,3-dichlorophenyl)urea]: the inhibition at 10 µM was determined as 85% on KDR kinase (setting [5]) and 82% on Abl kinase (setting [5]).

Regarding `CN(C)[C@H]1CCN(C(=O)Cc2cccc(-n3nc(C(C)(C)C)cc3NC(=O)Nc3cccc(Cl)c3Cl)c2)C1` [Example 465, 1-(3-tert-butyl-1-(3-(2-((S)-3-(dimethylamino)pyrrolidin-1-yl)-2-oxoethyl)phenyl)-1H-pyrazol-5-yl)-3-(2,3-dichlorophenyl)urea], the inhibition at 10 µM on KDR kinase (setting [5]) was 91%. Besides, the IC50 at Abl kinase stood at 1.2 µM.

In test [1], `NC(=O)Cc1ccc(-n2nc(-c3ccsc3)cc2NC(=O)Nc2cccc(Cl)c2Cl)cc1` [Example 469, 1-(1-(4-(2-amino-2-oxoethyl)phenyl)-3-(thiophen-3-yl)-1H-pyrazol-5-yl)-3-(2,3-dichlorophenyl)urea] registered an IC50 of 0.009 µM. Besides, at B-Raf(V599E) kinase, the inhibition at 1 µM came out at 43%. Moreover, the inhibition at 10 µM at Abl kinase (setting [4]) is 22%.

For `O=C(Cc1ccc(-n2nc(-c3ccccc3)cc2NC(=O)Nc2cccc(Cl)c2Cl)cc1)NCCO` [Example 470, 1-(2,3-dichlorophenyl)-3-(1-(4-(2-(2-hydroxyethylamino)-2-oxoethyl)phenyl)-3-phenyl-1H-pyrazol-5-yl)urea], the IC50 in test [2] was 0.005 µM. Moreover, the inhibition at 10 µM at Abl kinase (setting [4]) is 15%.

Take `CC(C)(C)c1cc(NC(=O)Nc2cccc(Cl)c2Cl)n(-c2ccc(CC(=O)N3CCCC(C(=O)O)C3)cc2)n1` (centres unmarked) [Example 476, 1-(2-(4-(3-tert-butyl-5-(3-(2,3-dichlorophenyl)ureido)-1H-pyrazol-1-yl)phenyl)acetyl)piperidine-3-carboxylic acid]: the IC50 in test [2] came to 0.024 µM; in test [1], 0.006 µM; against B-Raf(V599E) kinase it was 0.041 µM; at Abl kinase (setting [6]), 8.4 µM.

On to `CC(C)(C)c1cc(NC(=O)Nc2cccc(Cl)c2Cl)n(-c2ccc(CC(=O)N3CC[C@H](O)C3)cc2)n1` [Example 478, (S)-1-(3-tert-butyl-1-(4-(2-(3-hydroxypyrrolidin-1-yl)-2-oxoethyl)phenyl)-1H-pyrazol-5-yl)-3-(2,3-dichlorophenyl)urea], for which the IC50 was 0.006 µM in test [1] and 0.028 µM against B-Raf(V599E) kinase. Besides, the results for the inhibition at 10 µM at KDR kinase (setting [3]) and at Abl kinase (setting [4]) were 99% and 91%, respectively.

For `CN(C)[C@@H]1CCN(C(=O)Cc2ccc(-n3nc(C(C)(C)C)cc3NC(=O)Nc3cccc(Cl)c3Cl)cc2)C1` [Example 480, (R)-1-(3-tert-butyl-1-(4-(2-(3-(dimethylamino)pyrrolidin-1-yl)-2-oxoethyl)phenyl)-1H-pyrazol-5-yl)-3-(2,3-dichlorophenyl)urea], the inhibition at 10 µM was 92% at KDR kinase (setting [3]) and 94% at Abl kinase (setting [4]). At B-Raf(V599E) kinase, this compound showed an IC50 of 0.029 µM.

Turning to `CN(C)[C@@H]1CCN(C(=O)Cc2ccc(-n3nc(C(C)(C)C)cc3NC(=O)Nc3cccc(Cl)c3Cl)cc2)C1` [Example 481, (R)-1-(3-tert-butyl-1-(4-(2-(3-(dimethylamino)pyrrolidin-1-yl)-2-oxoethyl)phenyl)-1H-pyrazol-5-yl)-3-(2,3-dichlorophenyl)urea], the “Results, % @ concentration μM” value on KDR kinase (Method K1, @ 10 μM) turned out to be 102% @10; at Abl kinase (Method A1, @ 10 μM) it was 93% @10. The IC50 against B-Raf(V599E) kinase was found to be 0.041 µM.

Consider `CC(C)(C)c1cc(NC(=O)Nc2cccc(Cl)c2Cl)n(-c2cccc(CN3C(=O)NC(=O)C3=O)c2)n1` [Example 482, 1-(3-tert-butyl-1-(3-((2,4,5-trioxoimidazolidin-1-yl)methyl)phenyl)-1H-pyrazol-5-yl)-3-(2,3-dichlorophenyl)urea], for which the IC50 in test [2] came to 0.084 µM; at KDR kinase (Method K1), 1.4 µM; at B-Raf(V599E) kinase, 0.0038 µM; on Abl kinase (setting [6]), 3.2 µM.

For `O=C(Nc1ccc(F)c(F)c1F)Nc1cc(-c2cccs2)nn1-c1cccc(CO)c1` [Example 493, 1-(1-(3-(hydroxymethyl)phenyl)-3-(thiophen-2-yl)-1H-pyrazol-5-yl)-3-(2,3,4-trifluorophenyl)urea], the “% @ concentration, uM” value is reported as 36% in test [2] (@ 1 uM) and 73% in test [2] (@ 10 uM). In addition, the inhibition at 10 µM on KDR kinase (setting [3]) was found to be 82%. Moreover, the inhibition at 1 µM at Abl kinase (read-out: Results, % @ concentration μM, Method A1, @ 1 μM) was 17%.

For the compound `CC(C)(C)c1cc(NC(=O)Nc2cccc(F)c2F)n(-c2cccc(CC(N)=O)c2)n1` [Example 495, 1-(1-(3-(2-amino-2-oxoethyl)phenyl)-3-tert-butyl-1H-pyrazol-5-yl)-3-(2,3-difluorophenyl)urea], the IC50 in test [2] was determined as 0.25 µM; in test [1], 0.038 µM; against B-Raf(V599E) kinase, 0.009 µM; at Abl kinase (setting [6]), 7.6 µM.

With `CC(C)(C)c1cc(NC(=O)Nc2ccc(F)cc2F)n(-c2cccc(CC(N)=O)c2)n1` [Example 496, 1-(1-(3-(2-amino-2-oxoethyl)phenyl)-3-tert-butyl-1H-pyrazol-5-yl)-3-(2,4-difluorophenyl)urea], the figures for the IC50 against KDR kinase (Method K1) and against B-Raf(V599E) kinase were 2.4 µM and 0.01 µM, respectively. Also, on Abl kinase (setting [4]), the inhibition at 10 µM stood at 66%.

Take `CC(C)(C)c1cc(NC(=O)Nc2ccc(F)cc2F)n(-c2ccc(CC(=O)O)cc2)n1` [Example 497, 2-(4-(3-tert-butyl-5-(3-(2,4-difluorophenyl)ureido)-1H-pyrazol-1-yl)phenyl)acetic acid]: the inhibition at 10 µM stood at 43% at KDR kinase (setting [3]) and 30% at Abl kinase (setting [4]). The IC50 against B-Raf(V599E) kinase was 0.045 µM.

`NC(=O)Cc1cccc(-n2nc(-c3ccccc3)cc2NC(=O)Nc2cccc(Oc3cccnc3)c2)c1` [Example 501, 1-(1-(3-(2-amino-2-oxoethyl)phenyl)-3-phenyl-1H-pyrazol-5-yl)-3-(3-(pyridin-3-yloxy)phenyl)urea]: the figures for the IC50 (in test [1]; against KDR kinase (Method K1); at Abl kinase (setting [6])) were 0.076 µM, 1.6 µM and 2.5 µM, respectively.

In the case of `CC(C)(C)c1cc(NC(=O)Nc2cccc(-c3cccnc3)c2)n(-c2cccc(CC(N)=O)c2)n1` [Example 507, 1-(1-(3-(2-amino-2-oxoethyl)phenyl)-3-tert-butyl-1H-pyrazol-5-yl)-3-(3-(pyridin-3-yl)phenyl)urea], the IC50 in test [2] is 0.007 µM; in test [1], 0.18 µM; on B-Raf(V599E) kinase, 0.035 µM; at Abl kinase (setting [6]), 23.3 µM.

For the compound `CC(C)(C)c1cc(NC(=O)Nc2cccc(-c3ccc(N)nc3)c2)n(-c2cccc(CC(N)=O)c2)n1` [Example 508, 1-(1-(3-(2-amino-2-oxoethyl)phenyl)-3-tert-butyl-1H-pyrazol-5-yl)-3-(3-(6-aminopyridin-3-yl)phenyl)urea], the IC50 came to 0.052 µM in test [2], 0.33 µM in test [1] and 0.02 µM on B-Raf(V599E) kinase. Further, on Abl kinase (setting [4]), the inhibition at 10 µM stood at 32%.
